Peptide text beside a SMILES is read from it.
Columns and labels:
[1] = Stability study, purity of FOL-005 by HPLC on storage; type: physicochemical
Description: FOL-005 lyophilized powder was dissolved in phosphate/citrate buffer of pHs 5, 6, 7 or 7.6. Samples of each formulation were analysed for purity using high-pressure liquid chromatography after up to 3 months of storage at 25° C. respectively. In addition, an essentially water-free formulation of FOL-005 was stored at 25° C. and samples were analysed for purity after up to 12 months of storage.
FOL-005/sucrose lyophilized powder was formulated to a suspension in dried or un-dried isopropyl myristate, paraffin oil/petrolatum, Sorbitan laurate and glyceryl behenate. Samples of each formulation were analysed for purity using high pressure liquid chromatography after up to 12 months of storage at 2-8, 25 and 30° C. respectively.

[2] = Solubility of FOL-005 in propylene glycol; type: physicochemical; details: in propylene glycol at room temperature
skin equivalents = experiment: Total melanin assay; type: cell-based, human; details: experiment 2, 10 mg/ml topical, day 20, n=4
Description: The skin equivalents used in this study was from the same donors as in Example 2. The determination of the total melanin content of the skin equivalent was determined using a total melanin assay.
The total melanin content of the SE was calculated by dissolving the SE in Soluene and reading the absorbance against a standard curve. The SEs were removed from culture on day 20 and washed with PBS. They were then transferred to a glass centrifuge tube and 500 μl Soluene added. The tubes were then covered with […]®, gently vortexed and placed on the Thermomixer at 50° C. for 1 hour. The tubes were then gently vortexed and 150 μl of the sample and synthetic melanin standards pipetted in triplicate into a glass 96 well plate. The absorbance was then measured at 490 nm on a Spectrophotometer. Results are presented in μg/ml against a standard curve. The change of melanin content is expressed as a percentage change versus vehicle control samples. An ANOVA (with Dunnett's post-test) was used for the statistical analysis.
Three experiments were conducted, and the same donors were used as in Example 2. The sample sizes were as follows: experiment 1 n=2, experiment 2 n=4 and experiment 3 n=7. Peptides 1 (SEQ ID NO: 2), 3 (SEQ ID NO: 3) and 4 (SEQ ID NO: 4) were tested.

skin equivalents (SEs) = experiment: H&E and Warthin Starry staining of skin equivalents; type: cell-based, human; details: day 20
Description: Two skin equivalents (SEs) were used from one donor.
The analysis was achieved using the Warthin Starry assay using our recently published method (Joly-Tonetti et al 2016) and hematoxylin&eosin (H&E) staining.
The SEs were stained with Warthin Starry stain to visualise and quantify the melanin in sections. The SEs were removed from culture on day 20 and washed in PBS. They were then flash frozen in liquid nitrogen and mounted in OCT for sectioning. 10 μm sections were cut using a cryostat, the sections collected on slides and fixed in Acetone for 10 mins. The OCT was removed from the section by washing in acidulated water for 20 mins. The slides were then incubated in 1% silver nitrate solution for 1 hour at 43° C. […] The slides were stained for 2 mins then the staining was stopped by running the slides under hot tap water. Slides were then mounted using Histomount. Brightfield images were captured using a Nikon Eclipse microscope. Image analysis of the melanin density in sections was performed using Image J and densitometric thresholding. Results are presented in pixel intensity units. For the hematoxylin&eosin (H&E) staining, the SEs were flash frozen, sectioned and fixed as above. The slides were then washed in dH2O to remove the OCT for 20 mins. Haematoxylin was filtered using filter paper into a Coplin jar. Further Coplin jars were also prepared containing the following: Tap Water, Scott's Tap Water, 0.25% Eosin, 50% Ethanol, 70% Ethanol, 90% Ethanol, Ethanol and Histoclear. The slides were then placed into Haematoxylin for 2 mins, and then placed into tap water for 30 secs, Scott's Tap Water for 1 min & Eosin for 2 mins. The slides were then dehydrated through the Ethanol (1 min each) then placed into Histoclear for 2 mins and mounted using Histomount. Brightfield images were captured using a Nikon Eclipse microscope.

[3] = tested on: Pigmented skin equivalents (SEs), Melanoderms Mel-300-A (donor) and Mel-300-C-2 (donor); experiment: Skin equivalent culture, photographic assessment of pigmentation; type: cell-based, human
Description: The skin equivalent surface area was 63.6 mm^2. Other equipment used included SMZ1000 Stereo Microscope (Nikon); UC30 Microscope Camera (Olympus); Phosphate-Buffered Saline (PBS); 6-well Tissue Culture Plates (Sarstedt); Image J software (https://imagej.nih.gov); Paintshop Photo Pro Software (Corel). The Melanoderms were prepared by carefully removing the agarose with sterile forceps and placing them in pre-warmed culture medium (37° C.) for an hour prior to treatment. The Melanoderms were then topically treated (without rubbing) with 25 μl of the various peptides, dissolved in dH2O at 10 mg/ml. […] The SEs were examined and removed from culture when skin darkening became visible. The pigmentation of the Melanoderms was macroscopically assessed by capturing high-resolution images using the Olympus microscope camera. […] They were then placed into a 6-well plate containing 1 ml PBS/well and images captured at ×8 magnification. The images were then processed using Image J & Paintshop Photo Pro software, to determine a quantifiable pixel area, which equated to the level of pigmentation present in the skin equivalent. The image brightness was normalised and the image gray-scaled using Paintshop Photo Pro, then Image J was used to threshold the image. The pigmentation was quantified by assessing total pixel area of pigmentation coverage in a fixed sample area. An ANOVA test (Dunnett's post-test) was used for the statistical analysis. Three different experiments were conducted. In the first, skin equivalents from both donors were included, and in experiment 2 and 3, only the […] donor was included. The SE of the […] donor from the first experiment received 5 treatments of 25 μl of peptide solution at 10 mg/ml; starting on the first day following receipt then on days 3, 5, 9 and 12. Peptides 1 (SEQ ID NO: 2), 3 (SEQ ID NO: 3) and 4 (SEQ ID NO: 4) were tested. The images were taken on Day 14. In experiment 2, peptide 3 and 4 were selected for testing to see if it had any efficacy in reducing melanin content or the distribution of melanin throughout the SE. This time, 5 SEs were used per treatment to improve statistical robustness. The experiment was continued for 20 days with treatments on days 0, 3, 7 and 12 and medium changes every other day. In experiment 3 a more highly pigmented SE ([…] donor melanocytes) was used and with an increased sample size with n=7 per treatment. […] Treatment was repeated on days 5, 9, 12 and 15 with medium changed every other day.

Row | degradation of FOL-005 ([1]; at various pH (buffers)) | degradation of FOL-005 ([1]; water free conditions) | solubility of FOL-005 [2] [µg/mL] | Compound | total melanin content of skin equivalents vs vehicle control (skin equivalents) | melanin content and distribution in SE sections (Warthin Starry) (skin equivalents (SEs); one of the donors (FIG. 3A)) | melanin content and distribution in SE sections (Warthin Starry) (skin equivalents (SEs); second donor (FIG. 3B-D)) | pigmentation of skin equivalents (photographic assessment) compared to vehicle control ([3]; experiment 1, donor, 5 topical treatments of 25 μl at 10 mg/ml in dH2O, images Day 14) | pigmentation of skin equivalents (photographic assessment) compared to vehicle control ([3]; experiment 2, donor, 10 mg/ml, 20 days, n=5) | pigmentation of skin equivalents (photographic assessment) compared to vehicle control ([3]; experiment 3, more highly pigmented SE (donor), 10 mg/ml, n=7)
1 | degraded | very limited | 160 | CC[C@H](C)[C@H](NC(=O)[C@H](CC(=O)O)NC(=O)CNC(=O)[C@H](CC(=O)O)NC(=O)[C@H](Cc1ccc(O)cc1)NC(=O)[C@@H](NC(=O)[C@H](CC(=O)O)NC(=O)[C@@H](N)C(C)C)[C@@H](C)O)C(=O)N[C@@H](CO)C(=O)N[C@H](C(=O)N[C@H](C(=O)N[C@@H](Cc1ccc(O)cc1)C(=O)NCC(=O)N[C@@H](CC(C)C)C(=O)N[C@@H](CCCNC(=N)N)C(=O)O)C(C)C)C(C)C [FOL-005] (H-VDTYDGDISVVYGLR-OH; N-terminus and C-terminus assumed) | – | – | – | – | – | –
2 | – | – | – | Ala-Ala-His-Met (AAHM; (1)..(4) Peptide 3) | no difference | reduction in melanin in the upper epidermal layers | did not appear to have any obvious effect | equivalent or slightly less pigmented than the vehicle control | slight decrease in pigmentation | little effect

From patent US20240228536A1, “PEPTIDES FOR USE IN SKIN AND HAIR PIGMENTATION” (Follicum AB, priority 2020, published 2024)
